Measurements taken from the supplement of paper PMC10307832.

Experiments:
Assay in all cases: relative viability (nuclei count vs DMSO), 5 days (fraction); higher = more cells survive
[1] = compound: COc1cc2nccc(Oc3ccc(NC(=O)C4(C(=O)Nc5ccc(F)cc5)CC4)cc3)c2cc1OC [Cabozantinib] + Nc1nc2[nH]cc(CCc3ccc(C(=O)N[C@@H](CCC(=O)O)C(=O)O)cc3)c2c(=O)[nH]1 [Pemetrexed] (partner 0.2 µM)
Summary of the method: (§1)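 Medians of duplicate plates are given as relative viability. That measure is the nuclei count in treated wells divided by the count in vehicle wells. Counts were taken on 4× images of lung cancer cell lines in 1536-well plates, 5 days after pin-tool dosing the day after seeding with one drug alone or a fixed anchor-drug dose plus five library-drug doses (not always all listed) in √10 steps.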

Cabozantinib + Lapatinib = compound: COc1cc2nccc(Oc3ccc(NC(=O)C4(C(=O)Nc5ccc(F)cc5)CC4)cc3)c2cc1OC [Cabozantinib] + CS(=O)(=O)CCNCc1ccc(-c2ccc3ncnc(Nc4ccc(OCc5cccc(F)c5)c(Cl)c4)c3c2)o1 [Lapatinib] (partner 2 µM)
Summary of the method: as §1

Zosuquidar + Crizotinib = compound: O[C@@H](COc1cccc2ncccc12)CN1CCN([C@@H]2c3ccccc3[C@@H]3[C@H](c4ccccc42)C3(F)F)CC1 [Zosuquidar] + C[C@@H](Oc1cc(-c2cnn(C3CCNCC3)c2)cnc1N)c1c(Cl)ccc(F)c1Cl [Crizotinib] (partner 1 µM)
Summary of the method: as §1

Cabozantinib + OSI-027 = compound: COc1cc2nccc(Oc3ccc(NC(=O)C4(C(=O)Nc5ccc(F)cc5)CC4)cc3)c2cc1OC [Cabozantinib] + COc1cccc2cc(-c3nc([C@H]4CC[C@H](C(=O)O)CC4)n4ncnc(N)c34)[nH]c12 [OSI-027] (partner 0.5 µM)
Summary of the method: as §1

Cell Line: UMC-11
- relative viability ([1]; first compound 0.02 µM): 0.802
- relative viability ([1]; first compound 0.06325 µM): 0.879
- relative viability ([1]; first compound 0.2 µM): 0.782
- relative viability ([1]; first compound 0.6325 µM): 0.837
- relative viability ([1]; first compound 2 µM): 0.747
- relative viability (Cabozantinib + Lapatinib; first compound 0.02 µM): 1.05
- relative viability (Cabozantinib + Lapatinib; first compound 0.06325 µM): 1.41
- relative viability (Cabozantinib + Lapatinib; first compound 0.2 µM): 0.86
- relative viability (Cabozantinib + Lapatinib; first compound 0.6325 µM): 1.07
- relative viability (Cabozantinib + Lapatinib; first compound 2 µM): 0.91
- relative viability (Zosuquidar + Crizotinib; first compound 0.01 µM): 0.494
- relative viability (Zosuquidar + Crizotinib; first compound 0.03162 µM): 0.619
- relative viability (Zosuquidar + Crizotinib; first compound 0.1 µM): 0.578
- relative viability (Zosuquidar + Crizotinib; first compound 0.3162 µM): 0.622
- relative viability (Zosuquidar + Crizotinib; first compound 1 µM): 0.564
- relative viability (Cabozantinib + OSI-027; first compound 0.02 µM): 0.45
- relative viability (Cabozantinib + OSI-027; first compound 0.06325 µM): 0.49
- relative viability (Cabozantinib + OSI-027; first compound 0.2 µM): 0.518
- relative viability (Cabozantinib + OSI-027; first compound 0.6325 µM): 0.547
- relative viability (Cabozantinib + OSI-027; first compound 2 µM): 0.432
